Data set [1] concerns Mus musculus. The data set can be described thus: In vivo antitumor activity was determined after administration of compound (1.0 umol/kg) in mice bearing RIF tumors exposed to laser light (135 J/cm**2) on day 21. In kind it is functional.
Data set [2] relates to Mus musculus. The data set can be described thus: In vivo antitumor activity was determined after administration of compound (1.0 umol/kg) in mice bearing RIF tumors exposed to laser light (135 J/cm**2) on day 30. The data set is classed as functional.
A short description of data set [3]: Partition coefficient (logP). The data set is classed as physicochemical. The following applies: octanol/water.
In data set [4] the test system is Mus musculus. The data set is described as follows: In vivo antitumor activity was determined after administration of compound (1.0 umol/kg) in mice bearing RIF tumors exposed to laser light (135 J/cm**2) on day 14. In kind it is functional.
In data set [5] the test system is Mus musculus. The data set can be described thus: In vivo antitumor activity was determined after administration of compound (1.0 umol/kg) in mice bearing RIF tumors exposed to laser light (135 J/cm**2) on day 1-2. The data set is classed as functional.
Data set [6] relates to Mus musculus. The data set is described as follows: In vivo antitumor activity was determined after administration of compound (1.0 umol/kg) in mice bearing RIF tumors exposed to laser light (135 J/cm**2) on day 7. The data set is classed as functional.
The test system of data set [7] is Mus musculus. The data set can be described thus: In vivo antitumor activity was determined after administration of compound (1.0 umol/kg) in mice bearing RIF tumors exposed to laser light (135 J/cm**2) on day 7; Tumor regrowth. The data set is classed as functional, organism-based.
Data set [8] relates to Mus musculus. The data set can be described thus: In vivo antitumor activity was determined after administration of compound (1.0 umol/kg) in mice bearing RIF tumors exposed to laser light (135 J/cm**2) on day 1-2; No rseponse. In kind it is functional, organism-based.
Data set [9] has as its system Mus musculus. The data set is described as follows: In vivo antitumor activity was determined after administration of compound (1.0 umol/kg) in mice bearing RIF tumors exposed to laser light (135 J/cm**2) on day 21; No rseponse. The data set is classed as functional, organism-based.
Data set [10] concerns Mus musculus. The data set can be described thus: In vivo antitumor activity was determined after administration of compound (1.0 umol/kg) in mice bearing RIF tumors exposed to laser light (135 J/cm**2) on day 14; No rseponse. The data set is classed as functional, organism-based.
For data set [11], the system named is Mus musculus. The data set can be described thus: In vivo antitumor activity was determined after administration of compound (1.0 umol/kg) in mice bearing RIF tumors exposed to laser light (135 J/cm**2) on day 30; No rseponse. In kind it is functional, organism-based.
Data set [12] relates to Mus musculus. The data set is described as follows: In vivo antitumor activity was determined after administration of compound (1.0 umol/kg) in mice bearing RIF tumors exposed to laser light (135 J/cm**2) on day 7; No rseponse. The data set is classed as functional, organism-based.

What is called logP is a log measure of how a compound divides between an organic and an aqueous phase. A higher logP goes with higher lipophilicity.

For the molecule `CCCCCCCOC(C)C1=C(C)c2cc3nc(c4c5[nH]c(cc6[nH]c(cc1n2)c(C)c6CC)c(C)c5C(=O)N(CCCCCC)C4=O)[C@@H](CCC(=O)OC)[C@@H]3C` (some centres not stated), the Tumor cure in the data set with Mus musculus [1], in the data set with Mus musculus [2], in the data set on Mus musculus [4], in the data set on Mus musculus [5] and in the data set on Mus musculus [6] was 100% throughout. Also, the logP in [3] is 10.83.

For the molecule `CCCCCCCCCCN1C(=O)c2c3nc(cc4nc(cc5[nH]c(cc6[nH]c2c(c6C)C1=O)c(CC)c5C)C(CC)=C4C)[C@@H](C)[C@@H]3CCC(=O)OC`, in data set [3], the logP is 10.62. For the same molecule, the results for the Tumor cure in the data set on Mus musculus [5] and in the data set with Mus musculus [7] were 100% and “Tumour regrowth”, respectively.

The molecule `CCCCCCCOC(C)c1c(C)c2cc3[nH]c(cc4nc(c5c6nc(cc1[nH]2)C(C)=C6C(=O)N(CCCCCC)C5=O)[C@@H](CCC(=O)OC)[C@@H]4C)c(C)c3CC` (some centres not stated) returned a logP in data set [3] of 10.83. Also, the Tumor cure result in the data set with Mus musculus [8], in the data set on Mus musculus [9], in the data set with Mus musculus [10], with Mus musculus [11] and in the data set with Mus musculus [12] was “No response” each time.

Turning to `CCCCCCCCOCC1=C(C)c2cc3nc(c4c5[nH]c(cc6[nH]c(cc1n2)c(C)c6CC)c(C)c5C(=O)N(CCCCCC)C4=O)[C@@H](CCC(=O)OC)[C@@H]3C`, the lipophilicity (logP) in [3] came to 10.8. Moreover, the Tumor cure result in the data set on Mus musculus [8], in the data set with Mus musculus [9], with Mus musculus [10], in the data set on Mus musculus [11] and with Mus musculus [12] was “No response” in each case.

On to `CCCCCCCOCc1c2nc(c3c4nc(cc5[nH]c(cc6[nH]c1c(C)c6CC)c(C)c5CC)C(C)=C4C(=O)N(CCCCCC)C3=O)[C@@H](CCC(=O)OC)[C@@H]2C`, for which the Tumor cure in the data set with Mus musculus [1], with Mus musculus [2], in the data set with Mus musculus [4], in the data set on Mus musculus [5] and with Mus musculus [6] was 50% throughout. Also, the logP in data set [3] is reported as 10.78.

The record behind these values is ChEMBL document CHEMBL1133217, “Purpurinimides as photosensitizers: effect of the presence and position of the substituents in the in vivo photodynamic efficacy” (Bioorg Med Chem Lett, 2000).
